Test results published in BindingDB's records for doi:10.1016/j.bmc.2010.03.023 (Swedish University Agricultural Sciences, 2010).

Tests used:
[1] = target: T1, Thymidine kinase (Ureaplasma parvum serovar 3 (strain ATCC 700970), UniProt Q9PPP5); experiment: Inhibition of Ureaplasma parvum thymidine kinase by liquid scintillation counting
T1 sequence (Q9PPP5 whole entry): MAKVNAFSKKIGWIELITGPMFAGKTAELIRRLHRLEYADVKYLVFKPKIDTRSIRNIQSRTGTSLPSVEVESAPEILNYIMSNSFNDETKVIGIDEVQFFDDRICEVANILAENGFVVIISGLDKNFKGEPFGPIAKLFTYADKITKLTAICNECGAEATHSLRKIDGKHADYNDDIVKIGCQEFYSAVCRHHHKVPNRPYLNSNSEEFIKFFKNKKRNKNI

[2] = target: T2, Thymidine kinase, cytosolic (Homo sapiens, UniProt P04183); experiment: Inhibition of human TK1 by liquid scintillation counting
T2 sequence (P04183 whole entry): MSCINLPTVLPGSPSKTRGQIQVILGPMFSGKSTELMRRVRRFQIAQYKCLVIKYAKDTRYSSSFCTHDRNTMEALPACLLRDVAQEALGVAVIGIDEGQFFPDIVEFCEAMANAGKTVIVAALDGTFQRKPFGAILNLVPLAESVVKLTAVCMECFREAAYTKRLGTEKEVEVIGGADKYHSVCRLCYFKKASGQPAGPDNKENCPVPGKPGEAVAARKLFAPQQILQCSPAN

Row | IC50 [1] | IC50 [2] | Structure (SMILES)
1 | 120 µM | – | Cc1cn([C@H]2C[C@H](n3cc(CCc4ccccc4)nn3)[C@@H](CO)O2)c(=O)[nH]c1=O [3'-(4-(2-Phenyl-ethyl)-1,2,3-triazole-1-yl)-2'-deoxythymidine]
2 | 318 µM | 114 µM | Cc1cn([C@H]2C[C@H](n3cc(C(C)(C)C)nn3)[C@@H](CO)O2)c(=O)[nH]c1=O [3'-(4-tert-Butyl-1,2,3-triazol-1-yl)-3'-deoxythymidine]
3 | 200 µM | – | Cc1cn([C@H]2C[C@H](n3cc(-c4ccccc4)nn3)[C@@H](CO)O2)c(=O)[nH]c1=O [3'-Deoxy-3'-(4-phenyl-1,2,3-triazol-1-yl)-beta-D-thymidine]
4 | 211 µM | – | Cc1cn([C@H]2C[C@H](n3cc(-c4ccccn4)nn3)[C@@H](CO)O2)c(=O)[nH]c1=O [3'-Deoxy-3'-(4-pyridin-2-yl-1,2,3-triazol-1-yl)-beta-D-thymidine]
